From US8829007B2 (priority 2009, dated 2014) come the findings set out here.

Read-outs that look alike come from different tables or passages of the source.

In assay [1] the test system is A/PR/8/34 influenza virus. Nature of the assay: microbe, parasite or virus in culture. Type of assay: cell-based.
The subject of assay [2] is influenza A virus (A/PR/8/34). Nature of the assay: microbe, parasite or virus in culture. It is filed as cell-based.
The mark [3] stands for this setting: mean all, bDNA viral RNA in MDCK cells infected with A/PR/8/34, read-out: EC50.
Where [4] appears, read: mean all, MDCK cells infected with A/PR/8/34, cell protection (CPE), read-out: IC50.
Setting [5] is: Influenza A virus, PR/8, mean all, A/PR/8/34 influenza virus replication, bDNA, read-out: EC50.
The mark [6] stands for this setting: Influenza A virus, PR/8, MDCK, mean all, A/PR/8/34 infected MDCK cells, cell protection (CPE), read-out: IC50.
Where [7] appears, read: mean all, A/PR/8/34 influenza virus replication, bDNA, read-out: EC50.
Where [8] appears, read: Influenza A virus, PR/8, mean all, replication of A/PR/8/34 influenza virus (bDNA assay), read-out: EC50.
Setting [9] is: Influenza A virus, PR/8, MDCK, mean all, survival of A/PR/8/34 infected MDCK cells (CPE assay), read-out: IC50.
Where [10] appears, read: Influenza A virus, PR/8, 30 h, HA(−) 30 hr, A/PR/8, bDNA, mean all, read-out: Cell Influenza HA(−) 30 hr A/PR/8 bDNA:bDNA EC50 uM(Mean (All)).
[11] abbreviates: Influenza A virus, PR/8, MDCK, MDCK cells, A/PR/8/34, ATP readout, mean all, read-out: Cell Flu, MDCK protection, ATP (All: IC50: uM)(Mean (All)).

Consider `O=C(CN1CCCCC1)NC1CCCC(Nc2nc(-c3c[nH]c4ncc(Cl)cc34)ncc2F)C1` (stereo not shown) [Compound 729], for which the EC50 in assay [1] (setting [3]) is < 5 µM. Further, in assay [2] (setting [4]), the 50% inhibitory concentration (IC50) is < 5 µM.
As for `O=C(CN1CCOCC1)NC1CCCC(Nc2nc(-c3c[nH]c4ncc(Cl)cc34)ncc2F)C1` (stereo not shown) [Compound 730], in assay [1] (setting [3]), the EC50 is < 5 µM. In addition, in assay [2] (setting [4]), the IC50 is < 5 µM.
For the compound `O=C(O)C1CCC(Nc2nc(-c3c[nH]c4ncc(Cl)cc34)ncc2F)CC1` (stereo not shown) [Compound 731], the EC50 in assay [1] (setting [3]) was > 3.3 µM. For the same compound, the 50% inhibitory concentration (IC50) in assay [2] (setting [4]) was > 10 µM.
Turning to `CNC(=O)C[C@]1(O)CCCC(Nc2nc(-c3c[nH]c4ncc(Cl)cc34)ncc2F)C1` (stereo partly shown) [Compound 751], the EC50 in assay [1] (Influenza A virus, PR/8, MDCK, mean all, bDNA viral RNA in MDCK cells infected with A/PR/8/34, read-out: EC50) was < 5 µM. Besides, the IC50 in assay [2] (Influenza A virus, PR/8, MDCK, mean all, MDCK cells infected with A/PR/8/34, cell protection (CPE), read-out: IC50) was < 5 µM.
In the case of `CCNC(=O)[C@]1(O)CCC[C@H](Nc2nc(-c3c[nH]c4ncc(Cl)cc34)ncc2F)C1` [Compound 779, (1S,3S)-3-[[2-(5-chloro-1H-pyrrolo[2,3-b]pyridin-3-yl)-5-fluoro-pyrimidin-4-yl]amino]-N-ethyl-1-hydroxy-cyclohexanecarboxamide], in assay [1] (setting [5]), the EC50 was < 5 µM. The half-inhibitory concentration (IC50) in assay [2] (setting [6]) is < 5 µM.
As for `COCCNC(=O)[C@@H]1CCC[C@H](Nc2nc(-c3c[nH]c4ncc(Cl)cc34)ncc2F)C1` [Compound 789], in assay [1] (setting [7]), the EC50 is < 5 µM. Moreover, in assay [2] (read-out: IC50), the IC50 is < 5 µM.
With `O=c1[nH]c(=O)n([C@@H]2CCC[C@H](Nc3nc(-c4c[nH]c5ncc(Cl)cc45)ncc3F)C2)o1` [Compound 796], in assay [1] (setting [7]), the EC50 is < 5 µM. Also, the half-maximal inhibitory concentration (IC50) in assay [2] (read-out: IC50) was < 5 µM.
Consider `O=c1[nH]c(=O)n([C@H]2CCC[C@H](Nc3nc(-c4c[nH]c5ncc(Cl)cc45)ncc3F)C2)o1` [Compound 798], for which, in assay [1] (setting [7]), the EC50 was < 5 µM. For the same compound, in assay [2] (read-out: IC50), the IC50 is < 5 µM.
As for `CCNC(=O)C1CCCC(Nc2nc(-c3c[nH]c4ncc(Cl)cc34)ncc2F)C1O` (stereo not shown) [Compound 815, 3-[[2-(5-chloro-1H-pyrrolo[2,3-b]pyridin-3-yl)-5-fluoro-pyrimidin-4-yl]amino]-N-ethyl-2-hydroxy-cyclohexanecarboxamide], the EC50 in assay [1] (setting [5]) was < 5 µM. Moreover, the IC50 in assay [2] (setting [6]) is < 5 µM.
For `C[C@@]1(C(=O)O)CCCC(Nc2nc(-c3c[nH]c4ncc(Cl)cc34)ncc2F)C1` (stereo partly shown) [Compound 826], the EC50 in assay [1] (setting [5]) was < 5 µM. Moreover, the IC50 in assay [2] (setting [6]) was < 5 µM.
As for `CO[C@@H]1CCC[C@H](Nc2nc(-c3c[nH]c4ncc(Cl)cc34)ncc2F)[C@H]1O` [Compound 831, (1R,2S,6R)-2-(2-(5-chloro-1H-pyrrolo[2,3-b]pyridin-3-yl)-5-fluoropyrimidin-4-ylamino)-6-methoxycyclohexanol], the EC50 in assay [1] (setting [5]) was < 5 µM. The IC50 in assay [2] (setting [6]) was < 5 µM.
For the compound `Fc1cnc(-c2c[nH]c3ncc(Cl)cc23)nc1N[C@H]1CCC[C@@H](c2nnn[nH]2)C1` [Compound 855, N-((1S,3R)-3-(1H-tetrazol-5-yl)cyclohexyl)-2-(5-chloro-1H-pyrrolo[2,3-b]pyridin-3-yl)-5-fluoropyrimidin-4-amine], in assay [1] (setting [5]), the EC50 is < 5 µM. Moreover, the 50% inhibitory concentration (IC50) in assay [2] (setting [6]) was < 5 µM.
For `CC(=O)NC[C@]1(O)CCC[C@H](Nc2nc(-c3c[nH]c4ncc(Cl)cc34)ncc2F)C1` [Compound 857], the EC50 in assay [1] (setting [5]) was < 5 µM. Further, in assay [2] (setting [6]), the IC50 was < 5 µM.
With `C[C@@]1(O)CCC[C@H](Nc2nc(-c3c[nH]c4ncc(Cl)cc34)ncc2F)[C@H]1O` [Compound 860], the EC50 in assay [1] (setting [7]) was < 5 µM. The IC50 in assay [2] (read-out: IC50) was < 5 µM.
In the case of `N#CC1(C(=O)N[C@@H]2CCC[C@H](Nc3nc(-c4c[nH]c5ncc(F)cc45)ncc3F)C2)CC1` [Compound 871], the EC50 in assay [1] (setting [5]) was < 5 µM. The concentration for half-maximal inhibition (IC50) in assay [2] (setting [6]) was < 5 µM.
On to `N=C(N)N1CCC[C@H](Nc2nc(-c3c[nH]c4ncc(Cl)cc34)ncc2F)C1` [Compound 881], for which the EC50 in assay [1] (setting [5]) was > 3.3 µM. Also, in assay [2] (setting [6]), the half-inhibitory concentration (IC50) is > 10 µM.
For the compound `CS(=O)(=O)C[C@@]1(O)CCC[C@H](Nc2nc(-c3c[nH]c4ncc(Cl)cc34)ncc2F)C1` [Compound 886], the EC50 in assay [1] (mean all, replication of A/PR/8/34 influenza virus (bDNA assay), read-out: EC50) was < 5 µM. In assay [2] (read-out: IC50), the IC50 is < 5 µM.
For `O=C1CCCN1[C@@H]1CCC[C@H](Nc2nc(-c3c[nH]c4ncc(Cl)cc34)ncc2F)C1` [Compound 956], in assay [1] (setting [8]), the EC50 was < 5 µM. In addition, the IC50 in assay [2] (setting [9]) was < 5 µM.
As for `CN1CCN([C@@H]2CCCC(Nc3nc(-c4c[nH]c5ncc(Cl)cc45)ncc3F)C2)C1=O` (stereo partly shown) [Compound 958], in assay [1] (setting [8]), the EC50 is < 5 µM. In addition, in assay [2] (setting [9]), the IC50 is < 5 µM.
Regarding `O=C1CC2(CCC[C@H](Nc3nc(-c4c[nH]c5ncc(Cl)cc45)ncc3F)C2)CN1` (stereo partly drawn) [Compound 969, (7S)-7-(2-(5-chloro-1H-pyrrolo[2,3-b]pyridin-3-yl)-5-fluoropyrimidin-4-ylamino)-2-azaspiro[4.5]decan-3-one], the EC50 in assay [1] (setting [8]) was < 5 µM. Moreover, the IC50 in assay [2] (setting [9]) is < 5 µM.
As for `CN1C[C@@]2(CCC[C@H](Nc3nc(-c4c[nH]c5ncc(Cl)cc45)ncc3F)C2)OC1=O` [Compound 971, (5S,7S)-7-(2-(5-chloro-1H-pyrrolo[2,3-b]pyridin-3-yl)-5-fluoropyrimidin-4-ylamino)-3-methyl-1-oxa-3-azaspiro[4.5]decan-2-one], the EC50 in assay [1] (setting [8]) was < 5 µM. For the same compound, the 50% inhibitory concentration (IC50) in assay [2] (setting [9]) is < 5 µM.
Turning to `N#CC[C@]1(O)CCC[C@H](Nc2nc(-c3c[nH]c4ncc(F)cc34)ncc2F)C1` [Compound 979, 2-((1S,3S)-3-(5-fluoro-2-(5-fluoro-1H-pyrrolo[2,3-b]pyridin-3-yl)pyrimidin-4-ylamino)-1-hydroxycyclohexyl)ethanenitrile], in assay [1] (setting [10]), the EC50 was < 5 µM. Also, the concentration for half-maximal inhibition (IC50) in assay [2] (setting [11]) is < 5 µM.
Consider `O[C@H]1[C@H](O)CCCC[C@@H]1Nc1nc(-c2c[nH]c3ncc(F)cc23)ncc1F` [Compound 984], for which the EC50 in assay [1] (setting [10]) was < 5 µM. Further, in assay [2] (setting [11]), the IC50 was < 5 µM.
With `O=C(O)[C@H]1C2CCC(CC2)[C@@H]1Nc1nc(-c2c[nH]c3ncc(F)cc23)ncc1F` [Compound 1070, (2S,3S)-3-((2-(5-fluoro-1H-pyrrolo[2,3-b]pyridin-3-yl)-5-fluoropyrimidin-4-yl)amino)bicyclo[2.2.2]octane-2-carboxylic acid], the EC50 in assay [1] (setting [10]) is < 5 µM. The IC50 in assay [2] (setting [11]) was < 5 µM.
With `COc1c(F)cnc2[nH]cc(-c3ncc(F)c(N[C@H]4CCC[C@@H](NC(=O)N5CC[C@@H](F)C5)C4)n3)c12` [Compound 1104, (R)-3-fluoro-N-((1R,3S)-3-((5-fluoro-2-(5-fluoro-4-methoxy-1H-pyrrolo[2,3-b]pyridin-3-yl)pyrimidin-4-yl)amino)cyclohexyl)pyrrolidine-1-carboxamide], the EC50 in assay [1] (setting [10]) is < 5 µM. For the same compound, in assay [2] (setting [11]), the IC50 is < 5 µM.
Consider `N=C(N)N[C@@H]1CCC[C@H](Nc2nc(-c3c[nH]c4ncc(F)cc34)ncc2F)C1` [Compound 1143, 1-((1R,3S)-3-(5-fluoro-2-(5-fluoro-1H-pyrrolo[2,3-b]pyridin-3-yl)pyrimidin-4-ylamino)cyclohexyl)guanidine], for which the EC50 in assay [1] (setting [10]) was < 5 µM. Further, the half-inhibitory concentration (IC50) in assay [2] (setting [11]) was < 5 µM.
As for `O=C(O)c1coc(N[C@@H]2CCC[C@H](Nc3nc(-c4c[nH]c5ncc(F)cc45)ncc3F)C2)n1` [Compound 1144, 2-((1R,3S)-3-(5-fluoro-2-(5-fluoro-1H-pyrrolo[2,3-b]pyridin-3-yl)pyrimidin-4-ylamino)cyclohexylamino)oxazole-4-carboxylic acid], the EC50 in assay [1] (setting [10]) is < 5 µM. Besides, in assay [2] (setting [11]), the IC50 was < 5 µM.
Regarding `O=C(O[C@H]1CCC[C@@H](Nc2nc(-c3c[nH]c4ncc(F)cc34)ncc2F)C1)N1CC[C@H](F)C1` [Compound 1151, (S)-(1S,3R)-3-((5-fluoro-2-(5-fluoro-1H-pyrrolo[2,3-b]pyridin-3-yl)-pyrimidin-4-yl)amino)cyclohexyl 3-fluoropyrrolidine-1-carboxylate], the EC50 in assay [1] (setting [10]) was < 5 µM. In assay [2] (setting [11]), the IC50 was < 5 µM.
`O=C(O)[C@H]1C2CCC(CC2)[C@@H]1Nc1nc(-c2c[nH]c3ncc(Cl)cc23)ncc1F` [Compound 1184, (2S,3S)-3-((2-(5-chloro-1H-pyrrolo[2,3-b]pyridin-3-yl)-5-fluoropyrimidin-4-yl)amino)bicyclo[2.2.2]octane-2-carboxylic acid]: the EC50 in assay [1] (setting [10]) is < 5 µM. Besides, the IC50 in assay [2] (setting [11]) was < 5 µM.
Consider `C[C@H]1C[C@@H](NC(=O)N2CC[C@H](F)C2)C[C@@H](Nc2nc(-c3c[nH]c4ncc(F)cc34)ncc2F)C1` [compound 1067], for which, in assay [1] (setting [10]), the EC50 was < 5 µM. Further, the IC50 in assay [2] (setting [11]) is < 5 µM.
As for “(1S,3R)—N1-(5-fluoro-2-(5-fluoro-1H-pyrrolo[2,3-b]pyridin-3-yl)pyrimidin-4-yl)-N3-(pyrazin-2-yl)cyclohexane-1,3-diamine [Compound 985]”, the EC50 in assay [1] (HA(−) 30 hr, A/PR/8, bDNA, mean all, read-out: Cell Influenza HA(−) 30 hr A/PR/8 bDNA:bDNA EC50 uM(Mean (All))) is < 5 µM. The IC50 in assay [2] (MDCK cells, A/PR/8/34, ATP readout, mean all, read-out: Cell Flu, MDCK protection, ATP (All: IC50: uM)(Mean (All))) was < 5 µM.
As to “(R)-methyl 2-(3-((2-(5-chloro-1H-pyrrolo[2,3-b]pyridin-3-yl)-5-fluoropyrimidin-4-ylamino)methyl)piperidine-1-carboxamido)ethanoate [Compound 125]”, in assay [1] (read-out: EC50 (mean all)), the EC50 was < 5 µM. The half-inhibitory concentration (IC50) in assay [2] (read-out: IC50 (mean all)) is < 5 µM.

In general, IC50 refers to the point on the concentration scale where inhibition reaches its midpoint.
